Test results published in patent US20220362279A1, “USE OF OLIGONUCLEOTIDES FOR THE TREATMENT AND PREVENTION OF PAIN” (CONSEJO NACIONAL DE INVESTIGACIONES CIENTÍFICAS Y TÉCNICAS, priority 2018, published 2022).
Where a name gives a salt, the structure may show the parent alone.

Assays:
[1] = tested on: rats with postsurgical pain (plantar incision); assay: Opioid sparing: morphine in VEH- or IMT504-pre-treated rats with plantar incision, mechanical withdrawal threshold; assay type: in vivo, rat; conditions: for effect on withdrawal thresholds: VEH-pre-treated injured rats, 6 h and 1 day after injury
Protocol: In all experiments, the oligodeoxynucleotide (ODN) IMT504, with sequence 5′-[…]-3′ (SEQ ID No 1) was used. The HPLC-grade phosphorothioate ODN (Biosynthesis Inc., Lewisville, Tex., USA) was suspended in sterile saline solution (VEH, 0.9% NaCl; 20 mg/ml; storage concentration) and assayed for LPS contamination. Working concentration doses (6 mg/kg) were obtained by additional dissolving in sterile VEH. The ODN was administered subcutaneously, at a final volume of 200-300 μl, depending on animal weight.
Experiments addressing the opioid sparing effects of IMT504 included the subcutaneous (s.c.) injection of morphine hydrochloride trihydrate (Neocalmans, 10 mg/ml, Soubeiran Chobet, Buenos Aires, Argentina) at three different concentrations (1, 3 or 10 mg/kg, dissolved in sterile distilled water).
The rat hind paw plantar incision model of postoperative pain was used as previously described [Brennan, T. J., E. P. Vandermeulen, and G. F. Gebhart, Characterization of a rat model of incisional pain. Pain, 1996. 64(3): p. 493-501. Briefly, rats were anesthetized using isoflurane (5% induction, 2.5% maintenance, 0.8 l/min O2 flow rate; Piramal Healthcare, UK) and the plantar aspect of the right hind paw was disinfected with povidone iodine. A 1.0-cm longitudinal incision was made 0.5 cm from the end of the heel. The underlying flexor muscle was also incised longitudinally, allowing the muscle origin and insertion to remain intact. After hemostasis by gentle pressure, the skin was closed with sutures of 5-0 nylon.
Rats were divided into injured rats receiving IMT504 (6 mg/kg, dissolved in VEH) or VEH alone, 48h and 24 h prior to surgery. These groups were further subdivided into: 1) Rats followed during 3 days after the injury (n=6 per group), for assessment of pain-like behavior after the co-administration of morphine dissolved in injectable water (vehicle) at different doses, 6 and 24 h after injury; 2) Rats followed during 3 days after the injury (n=6 per group), for assessment of pain-like behavior after the co-administration of injectable water (vehicle) alone, 6 and 24 h after injury; 3) Rats followed during 21 days (n=8), for analysis of the administration of naloxone, 3 days after injury.
Mechanical withdrawal thresholds were assessed by using von Frey nylon monofilaments of different bending forces (1.4, 2, 6, 8, 10, 15 and 26 g; Stoelting Inc., Wooddale, USA) and the modified up-down method of Dixon, as described by Chaplan and cols. (Chaplan, S. R., et al., Quantitative assessment of tactile allodynia in the rat paw. J Neurosci Methods, 1994. 53(1): p. 55-63) , to establish the 50% withdrawal threshold. Results were obtained using the formula: 50% g threshold=[…], where Xf=value (in log units) of the final von Frey hair used; k=tabular value for the pattern of positive/negative responses; and […] difference (in log units) between stimuli. Mechanical withdrawal thresholds were tested 48 h before surgery (basal responses), and 6 h, 1, 3, 7, 14 and 21 days after injury.
A dose-response experiment to evaluate the effect of the s.c. administration of morphine at different doses (10, 3 and 1 mg/kg), 6 h or 1 day after injury, in VEH- or IMT504-treated rats (time-points were chosen based on the fact that a certain degree of mechanical withdrawal threshold alterations was still present in IMT504-treated rats was done, which allowed to test if within this therapeutic window, it was possible to fully revert pain-like behavior using smaller morphine doses). […]

[2] = tested on: rats with postsurgical pain (plantar incision); assay: Naloxone challenge in IMT504-pre-treated rats with plantar incision, mechanical withdrawal threshold; assay type: in vivo, rat; conditions: IMT504-treated injured rats; naloxone 2 mg/kg i.p. on day 3 after injury
Protocol: In all experiments, the oligodeoxynucleotide (ODN) IMT504, with sequence 5′-[sequence]-3′ (SEQ ID No 1) was used. The HPLC-grade phosphorothioate ODN (Biosynthesis Inc., Lewisville, Tex., USA) was suspended in sterile saline solution (VEH, 0.9% NaCl; 20 mg/ml; storage concentration) and assayed for LPS contamination. Working concentration doses (6 mg/kg) were obtained by additional dissolving in sterile VEH. The ODN was administered subcutaneously, at a final volume of 200-300 μl, depending on animal weight.
A group of rats also received an intraperitoneal (i.p.) injection of naloxone hydrochloride (Narxona 0.4 mg/ml; Scott-Cassara, Bs. As., Argentina), at a dose of 2 mg/kg, in order to test if the effect of IMT504 could be blocked by the pan-opioid receptor antagonist.
The rat hind paw plantar incision model of postoperative pain was used as previously described [Brennan, T. J., E. P. Vandermeulen, and G. F. Gebhart, Characterization of a rat model of incisional pain. […] Briefly, rats were anesthetized using isoflurane (5% induction, 2.5% maintenance, 0.8 l/min O2 flow rate; Piramal Healthcare, UK) and the plantar aspect of the right hind paw was disinfected with povidone iodine. A 1.0-cm longitudinal incision was made 0.5 cm from the end of the heel. The underlying flexor muscle was also incised longitudinally, allowing the muscle origin and insertion to remain intact. After hemostasis by gentle pressure, the skin was closed with sutures of 5-0 nylon.
Rats were divided into injured rats receiving IMT504 (6 mg/kg, dissolved in VEH) or VEH alone, 48h and 24 h prior to surgery. […]
Mechanical withdrawal thresholds were assessed by using von Frey nylon monofilaments of different bending forces (1.4, 2, 6, 8, 10, 15 and 26 g; Stoelting Inc., Wooddale, USA) and the modified up-down method of Dixon, as described by Chaplan and cols. (Chaplan, S. R., et al., Quantitative assessment of tactile allodynia in the rat paw. J Neurosci Methods, 1994. 53(1): p. 55-63) , to establish the 50% withdrawal threshold. […]

Row | SMILES | time after injection free of pain-like behavior ([1]; VEH rats receiving 10 mg morphine) | time after administration with fully reversed pain-like behavior ([1]; VEH rats receiving 1 or 3 mg morphine, both time-points) | effect on withdrawal thresholds ([1]; morphine 10 mg/kg s.c.) | effect on withdrawal thresholds ([1]; morphine 3 and 1 mg/kg s.c.) | withdrawal threshold 15 and 30 min after naloxone [2]
1 | CN1CC[C@]23c4c5ccc(O)c4O[C@H]2[C@@H](O)C=C[C@H]3[C@H]1C5.Cl.O.O.O [morphine, morphine hydrochloride trihydrate, reference compound] | 90 to 180 min | 60 min | very effective in increasing withdrawal thresholds | milder and comparable effects | –
2 | C=CCN1CC[C@]23c4c5ccc(O)c4O[C@H]2C(=O)CC[C@@]3(O)[C@H]1C5 [naloxone, naloxone hydrochloride, reference compound] | – | – | – | – | drastic and significant decrease in their withdrawal threshold
